In the NIST ThermoML archive (doi:10.1021/acs.jced.6b00269):
± gives the expanded uncertainty stated by the source.

Conditions: for viscosity / mass density: 101.33 kPa, Liquid; for viscosity: Cone and plate viscometry; for mass density: Vibrating tube method; for Glass transition temperature: DSC

| SMILES | viscosity (278.15 K) | viscosity (283.15 K) | mass density (283.15 K) | viscosity (288.15 K) | mass density (288.15 K) | viscosity (293.15 K) | mass density (293.15 K) | mass density (295.15 K) | viscosity (298.15 K) | mass density (298.15 K) | viscosity (303.15 K) | mass density (303.15 K) | viscosity (308.15 K) | mass density (308.15 K) | mass density (313.15 K) | mass density (318.15 K) | mass density (323.15 K) | mass density (328.15 K) | mass density (333.15 K) | mass density (338.15 K) | other results |
| --- | --- | --- | --- | --- | --- | --- | --- | --- | --- | --- | --- | --- | --- | --- | --- | --- | --- | --- | --- | --- | --- |
| CC(=O)[O-].CCCCCCn1cc[n+](C)c1 [3-hexyl-1-methylimidazolium acetate] | 12300 ± 1500 mPa·s | 6460 ± 740 mPa·s | 1025.7 ± 5.7 kg/m3 | 3550 ± 370 mPa·s | 1022.7 ± 5.7 kg/m3 | 2060 ± 200 mPa·s | 1019.6 ± 5.6 kg/m3 | 1018.4 ± 5.6 kg/m3 | 1270 ± 120 mPa·s | 1016.6 ± 5.6 kg/m3 | 816 ± 69 mPa·s | 1013.5 ± 5.5 kg/m3 | 537 ± 43 mPa·s | 1010.4 ± 5.5 kg/m3 | 1007.4 ± 5.5 kg/m3 | 1004.5 ± 5.4 kg/m3 | 1001.5 ± 5.4 kg/m3 | 998.5 ± 5.4 kg/m3 | 995.5 ± 5.3 kg/m3 | 992.6 ± 5.3 kg/m3 | viscosity (313.15 K): 372 ± 28 mPa·s; viscosity (318.15 K): 265 ± 19 mPa·s; viscosity (323.15 K): 194 ± 14 mPa·s; viscosity (328.15 K): 147 ± 10 mPa·s; viscosity (333.15 K): 113 ± 8 mPa·s; viscosity (338.15 K): 90 ± 6 mPa·s; mass density (343.15 K): 989.6 ± 5.3 kg/m3; mass density (348.15 K): 986.7 ± 5.3 kg/m3; mass density (353.15 K): 983.7 ± 5.2 kg/m3 |
| CC(=O)[O-].CCCCCCCCCCCCCC[P+](CCCCCC)(CCCCCC)CCCCCC [trihexyl(tetradecyl)phosphonium acetate] | 1820 ± 170 mPa·s | 1200 ± 110 mPa·s | 895 ± 4.5 kg/m3 | 814 ± 69 mPa·s | 891.9 ± 4.4 kg/m3 | 566 ± 45 mPa·s | 888.9 ± 4.4 kg/m3 | 887.6 ± 4.4 kg/m3 | 406 ± 31 mPa·s | 885.8 ± 4.4 kg/m3 | 298 ± 22 mPa·s | 882.8 ± 4.4 kg/m3 | 224 ± 16 mPa·s | 879.8 ± 4.3 kg/m3 | 876.8 ± 4.3 kg/m3 | 873.7 ± 4.3 kg/m3 | 870.7 ± 4.3 kg/m3 | 867.7 ± 4.3 kg/m3 | 864.7 ± 4.2 kg/m3 | 861.7 ± 4.2 kg/m3 | viscosity (313.15 K): 172 ± 12 mPa·s; viscosity (318.15 K): 135 ± 9 mPa·s; viscosity (323.15 K): 107 ± 7 mPa·s; mass density (343.15 K): 858.7 ± 4.2 kg/m3; mass density (348.15 K): 855.7 ± 4.2 kg/m3; mass density (353.15 K): 852.7 ± 4.2 kg/m3 |
| CCCCCCCCCCCCCC[P+](CCCCCC)(CCCCCC)CCCCCC.O=[N+]([O-])c1c[n-]cn1 [trihexyl(tetradecyl)phosphonium 4-nitroimidazolide] | 3380 ± 340 mPa·s | 2220 ± 210 mPa·s | 949.4 ± 4.9 kg/m3 | 1500 ± 140 mPa·s | 946.3 ± 4.9 kg/m3 | 1040 ± 91 mPa·s | 943.1 ± 4.8 kg/m3 | 941.8 ± 4.8 kg/m3 | 735 ± 61 mPa·s | 940.1 ± 4.8 kg/m3 | 533 ± 42 mPa·s | 937.1 ± 4.8 kg/m3 | 396 ± 30 mPa·s | 934.2 ± 4.8 kg/m3 | 931.3 ± 4.7 kg/m3 | 928.4 ± 4.7 kg/m3 | 925.4 ± 4.7 kg/m3 | 922.6 ± 4.7 kg/m3 | 919.7 ± 4.7 kg/m3 | 916.9 ± 4.6 kg/m3 | viscosity (313.15 K): 298 ± 22 mPa·s; viscosity (318.15 K): 230 ± 16 mPa·s; viscosity (323.15 K): 180 ± 13 mPa·s; viscosity (328.15 K): 144 ± 10 mPa·s; viscosity (333.15 K): 117 ± 8 mPa·s; viscosity (338.15 K): 96 ± 6 mPa·s; viscosity (343.15 K): 80 ± 5 mPa·s; mass density (343.15 K): 914 ± 4.6 kg/m3; mass density (348.15 K): 911.2 ± 4.6 kg/m3; mass density (353.15 K): 908.3 ± 4.6 kg/m3; Glass transition temperature: -66 ± 2 °C |
| CCOCc1n(CC)cc[n+]1C.O=S(=O)([N-]S(=O)(=O)C(F)(F)F)C(F)(F)F | 207 ± 15 mPa·s | 149 ± 10 mPa·s | – | 111 ± 8 mPa·s | – | 85 ± 6 mPa·s | – | – | 66 ± 4 mPa·s | – | 53 ± 4 mPa·s | – | – | – | – | – | – | – | – | – | Glass transition temperature: -78 ± 2 °C |
| CCC=Cn1cc[n+](C)c1C.O=[N+]([O-])c1cn[n-]c1 [1-but-1-enyl-2,3-dimethylimidazolium 4-nitropyrazolide] | 6650 ± 750 mPa·s | 3260 ± 340 mPa·s | 1191.5 ± 7.7 kg/m3 | 1720 ± 170 mPa·s | 1187.7 ± 7.7 kg/m3 | 973 ± 86 mPa·s | 1184.2 ± 7.6 kg/m3 | 1182.8 ± 7.6 kg/m3 | 590 ± 48 mPa·s | 1180.8 ± 7.6 kg/m3 | 380 ± 29 mPa·s | 1177.5 ± 7.5 kg/m3 | 255 ± 19 mPa·s | 1174.1 ± 7.5 kg/m3 | 1170.8 ± 7.5 kg/m3 | 1167.6 ± 7.4 kg/m3 | 1164.4 ± 7.4 kg/m3 | 1161.1 ± 7.3 kg/m3 | 1157.9 ± 7.3 kg/m3 | 1154.7 ± 7.2 kg/m3 | viscosity (313.15 K): 179 ± 13 mPa·s; viscosity (318.15 K): 131 ± 9 mPa·s; viscosity (323.15 K): 99 ± 7 mPa·s; viscosity (328.15 K): 77 ± 5 mPa·s; viscosity (333.15 K): 62 ± 4 mPa·s; viscosity (338.15 K): 50 ± 3 mPa·s; mass density (343.15 K): 1151.5 ± 7.2 kg/m3; mass density (348.15 K): 1148.3 ± 7.2 kg/m3; mass density (353.15 K): 1145.2 ± 7.1 kg/m3; Glass transition temperature: -53 ± 2 °C |
| CCCC[S+]1CCCC1.O=S(=O)([N-]S(=O)(=O)C(F)(F)F)C(F)(F)F | 284 ± 21 mPa·s | 206 ± 15 mPa·s | 1469 ± 12 kg/m3 | 153 ± 11 mPa·s | 1464.3 ± 12 kg/m3 | 117 ± 8 mPa·s | 1459.7 ± 12 kg/m3 | 1457.8 ± 12 kg/m3 | 91 ± 6 mPa·s | 1455 ± 12 kg/m3 | 73 ± 5 mPa·s | 1450.4 ± 12 kg/m3 | 59 ± 4 mPa·s | 1445.7 ± 11 kg/m3 | 1441.1 ± 11 kg/m3 | 1436.5 ± 11 kg/m3 | 1431.9 ± 11 kg/m3 | 1427.3 ± 11 kg/m3 | 1422.7 ± 11 kg/m3 | 1418.2 ± 11 kg/m3 | mass density (343.15 K): 1413.6 ± 11 kg/m3; mass density (348.15 K): 1409.1 ± 11 kg/m3; mass density (353.15 K): 1404.6 ± 11 kg/m3; Glass transition temperature: -83 ± 2 °C |
